Measured values: the supplement of paper PMC10307832

What was measured:
Assay in all cases: relative viability (nuclei count vs DMSO), 5 days (fraction); higher = more cells survive
[1] = compound: Cn1c(=O)n(-c2ccc(C(C)(C)C#N)cc2)c2c3cc(-c4cnc5ccccc5c4)ccc3ncc21 [Dactolisib] + CC(C)C[C@H](NC(=O)[C@H](Cc1ccccc1)NC(=O)c1cnccn1)B(O)O [Bortezomib] (partner 0.002 µM)
In short: (§1)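 Nuclei were stained with Hoechst during a one-step fixation (final 0.05% Triton X-100, 1% formaldehyde, 1 ug/ml Hoechst) carried out 5 days after dosing, then counted on 4× images. The cells, lung cancer lines in 1536-well plates, had been dosed by pin tool the day after seeding with one drug alone or a fixed anchor-drug dose plus five library-drug doses (not always all listed) in √10 steps. Relative viability is the nuclei count in treated wells divided by that in vehicle wells, and each value is the median of duplicate plates.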

[2] = compound: C1CCC(CC1)N(CCNCCC2=C3C(=C(C=C2)O)NC(=O)CO3)C(=O)CCNCCC4=CC(=C(C=C4)Cl)Cl [AZ505] + O=C(c1cc(Cc2n[nH]c(=O)c3ccccc23)ccc1F)N1CCN(C(=O)C2CC2)CC1 [Olaparib] (partner 8 µM)
In short: as §1

[3] = compound: C1CCC(CC1)N(CCNCCC2=C3C(=C(C=C2)O)NC(=O)CO3)C(=O)CCNCCC4=CC(=C(C=C4)Cl)Cl [AZ505] + Cc1nc(NC(=O)N2CCC[C@H]2C(N)=O)sc1-c1ccnc(C(C)(C)C(F)(F)F)c1 [Alpelisib] (partner 2 µM)
In short: as §1

[4] = compound: Cn1c(=O)n(-c2ccc(C(C)(C)C#N)cc2)c2c3cc(-c4cnc5ccccc5c4)ccc3ncc21 [Dactolisib] + C[C@]1(O)C[C@@H](c2nc(-c3ccc4ccc(-c5ccccc5)nc4c3)c3c(N)nccn32)C1 [Linsitinib] (partner 1 µM)
In short: as §1

Cell Line	relative viability ([1]; first compound 0.002 µM)	relative viability ([1]; first compound 0.006325 µM)	relative viability ([1]; first compound 0.02 µM)	relative viability ([1]; first compound 0.06325 µM)	relative viability ([1]; first compound 0.2 µM)	relative viability ([2]; first compound 0.08 µM)	relative viability ([2]; first compound 0.253 µM)	relative viability ([2]; first compound 0.8 µM)	relative viability ([2]; first compound 2.53 µM)	relative viability ([2]; first compound 8 µM)	relative viability ([3]; first compound 0.08 µM)	relative viability ([3]; first compound 0.253 µM)	relative viability ([3]; first compound 0.8 µM)	relative viability ([3]; first compound 2.53 µM)	relative viability ([3]; first compound 8 µM)	relative viability ([4]; first compound 0.002 µM)	relative viability ([4]; first compound 0.006325 µM)	relative viability ([4]; first compound 0.02 µM)	relative viability ([4]; first compound 0.06325 µM)	relative viability ([4]; first compound 0.2 µM)
H3255	0.798	0.693	0.766	0.664	0.39	0.55	0.564	0.569	0.601	0.597	0.62	0.8	0.715	0.705	0.813	1.13	0.919	0.967	0.626	0.416
201T	1.05	1.08	1.08	1.07	0.856	0.851	0.857	0.82	0.862	0.846	0.942	1.01	0.973	1.04	1.05	1.03	1.08	0.979	0.862	0.73
NCI-H2126	1.19	1.16	1.12	0.921	0.551	0.841	0.915	0.827	0.878	0.948	0.729	0.781	0.771	0.746	0.822	0.807	0.662	0.674	0.521	0.422
HOP-62	0.884	0.867	0.518	0.41	0.252		0.374	0.386	0.387	0.45	0.94	1.17	0.889	0.844	1.04	1.04	0.626	0.873	0.447	0.342
CAL-12T	1.05	1.13	0.825	0.721	0.338	0.588	0.777	0.736	0.706	0.696	1.05	1.23	1.23	1.24	1.33	0.911	0.72	0.753	0.291	0.334
NCI-H520	0.397	0.715	0.263	0.121	0.134	0.288	0.279	0.367	0.302	0.349	0.92	0.829	0.862	0.84	0.99	1.02	0.731	0.53	0.191	0.186
NCI-H1755	1.01	0.848	0.933	0.711	0.58	0.82	0.849	0.92	0.885	0.868	0.893	0.915	0.911	0.883	0.923	0.983	0.971	0.989	0.763	0.622
NCI-H2023	0.673	0.805	0.655	0.171	0.123	0.414	0.496	0.499	0.471	0.43	0.561	0.618	0.588	0.491	0.533	0.697	0.523	0.622	0.154	0.133
NCI-H2009	1.07	1.01	0.972	0.44	0.288	0.64	0.675	0.647	0.652	0.629	1.07	1.11	1.12	1.1	1.13	1.21	1.18	1.26	0.639	0.497
